Laboratory results reported in US7018614B2, “Stabilization of radiopharmaceuticals labeled with 18-F” (Eastern Isotopes, Inc., priority 2002, dated 2006).

Test: Stability of FDG solution against radiolysis: Radio Chemical Purity (RCP) by TLC after storage
Type: physicochemical
Protocol: In all experiments, the RCP was determined using a standard Thin Layer Chromatography (TLC) method using 10 cm silica-coated glass plates supplied by Alltech (Deerfield, Ill.). A 95:5 mixture of acetonitrile and water was used as a mobile phase and a TLC plate scanner supplied by Bioscan (Washington, D.C.) was used to measure the radioactivity distribution on the plate. In most cases, the sample size was less than 1 μl.
[…] It should be noted, however, that most of the radiolysis takes place in the first 3–6 hours due to the fact that the radioactivity concentration decreases exponentially over time with a half-life of 1.82 hours. After 6 hours, only about 10% of the radioactivity remains and is probably not sufficient to cause any significant decomposition of the product.
In this experiment, the final product was prepared with an initial activity concentration of 10.8 GBq/ml (292 mCi/ml). […] Samples were kept in tightly sealed vials identical to those used for storage and delivery of FDG to customers. […]
It was added in an amount calculated to result, after dilution with water, in about a 0.05% concentration in the final product.
Samples 1, 2, and 3, each of 2 ml, were taken from the final product. To see if storage conditions affected the results, samples 1 and 2 were stored in vials while sample 3 was stored in a syringe identical to those that are used to deliver FDG to users. […]

RCP after decline as a result of radiolysis (over a period of less than 12 hours, high activity concentration): less than 90%
RCP at the end of production (typical value, end of production): 98–100%
Substance: [^18F] 2-Fluoro-2-Deoxy-D-glucose [FDG]
